# Values quoted from earlier work in patent US20180117047A1, “DRUG FOR PREVENTING AND/OR TREATING DEMENTIA” (NATIONAL UNIVERSITY CORPORATION TOTTORI UNIVERSITY, priority 2015, published 2018).
# Read-outs that look alike come from different tables or passages of the source.
# System: F11 cell strain, fusion cells of rat primarily cultured nerve cells and mouse neuroblastomas, expressing N141I mutant of presenilin 2
# Settings: cited from earlier work
SMILES,Nerve cell death caused by addition of ecdysone (100 nM xanthine oxidase inhibitor simultaneously with 100 μM acetyl-L-aspartyl-L-glutamyl-L-valyl-L-aspart-1-al (caspase inhibitor)),Nerve cell death caused by addition of ecdysone (100 μM oxypurinol simultaneously with 100 μM acetyl-L-aspartyl-L-glutamyl-L-valyl-L-aspart-1-al (caspase inhibitor)),Nerve cell death caused by addition of ecdysone (100 μM oxypurinol simultaneously with 300 μM apocynin (NADPH oxidase inhibitor))
"COc1cc(-c2cnn3c(O)ncnc23)ccc1[S+]([O-])c1ccccc1.[Na] (single isomer, unassigned; (-)) [(−)-4-hydroxy-8-(3-methoxy-4-phenylsulfinylphenyl)pyrazolo[1,5-a]-1,3,5-triazine sodium salt]",suppressed,,
O=c1[nH]c(=O)c2c[nH]nc2[nH]1 [oxypurinol],,suppressed,suppressed
